pEC50, pIC50: −log10 of the molar value. Where only a bound is given, the exact number is not on record here.

One data set addresses T1, 229E Mpro (Human coronavirus 229E, UniProt P0C6X1).
T1 construct: Mpro
The data set can be described thus: 229E Mpro assay (Table 3). It is filed as biochemical, Human Coronavirus (HCov) 229E.

Another data set deals with HCoV 229E. The experiment in a line: HCoV 229E cytopathic effect (CPE) assay, CellTiter Glo. It is filed as cell-based, Human Coronavirus (HCov) 229E. The following applies: protection from virus-induced CPE. In general terms: Damage to the host cells serves as the signal in cytopathic effect assays.
For data set [1], the target named is COVID-19 (nCoV-2019, SARS-CoV2) Mpro (Severe acute respiratory syndrome coronavirus 2, UniProt P0DTD1). The data set can be described thus: SARS-CoV2 Mpro enzymatic assay. It is filed as biochemical. The following applies: 25 nM Mpro, 25 μM substrate.

T1 sequence (P0C6X1 2966-3267): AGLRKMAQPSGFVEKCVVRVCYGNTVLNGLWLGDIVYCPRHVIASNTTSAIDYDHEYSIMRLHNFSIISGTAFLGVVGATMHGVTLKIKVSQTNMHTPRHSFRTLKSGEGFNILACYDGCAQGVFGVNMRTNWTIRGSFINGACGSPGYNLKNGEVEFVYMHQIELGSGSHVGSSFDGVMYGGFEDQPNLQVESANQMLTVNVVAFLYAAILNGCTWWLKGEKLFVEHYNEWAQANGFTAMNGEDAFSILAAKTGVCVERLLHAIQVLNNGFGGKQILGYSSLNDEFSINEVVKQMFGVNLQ
Experimental for 229E Mpro: Compounds are assayed using standard methods to assess compound activity and IC50. […] The assay buffer contains 20 mM of Tris-HCl (pH 7.3), 100 mM of NaCl, 1 mM of EDTA, 5 mM of TCEP and 0.1% BSA.
The compounds are added to an assay plate.
IC50 values of compounds are calculated with the GraphPad Prism software using the nonlinear regression model of log(inhibitor) vs. response—Variable slope (four parameters). The inhibition activity is calculated using the formula below, IC50 values is calculated using the Inhibition % data. Inhibition %=[(Sample−Average ZPE)/(Average HPE−Average ZPE)]*100%^# • ^#HEP: Hundred percent effect controls. […] Containing enzyme+substrate, no compound. • Sample: Compound activity testing wells. Containing compound+enzyme+substrate. • BG: Compound background control wells. Containing compound+substrate, no enzyme.
Experimental for HCoV 229E: The antiviral activity of compounds is calculated based on the protection of the virus-induced CPE at each concentration normalized by the virus control.
Reagents and instruments used in this assay include luminescent cell viability assay kit CellTiter Glo (Promega) and Microplate Reader Synergy2 (BioTek).
Cytopathic effect (CPE) is measured by CellTiter Glo following the manufacturer's manual. The antiviral activity of compounds is calculated based on the protection of the virus-induced CPE at each concentration normalized by the virus control.

With `CC(C)CC(NC(=O)c1nc2ncccc2[nH]1)C(=O)NC(C#N)CC1CCNC1=O` (single isomer, unassigned) [130 (Isomer 1)], the cytotoxic concentration (CC50) in the data set on Cell viability is more than 30000 nM.

On to `COc1cccc2[nH]c(C(=O)NC(CC(C)(F)F)C(=O)NC(C#N)CC3CCNC3=O)cc12` (single isomer, unassigned) [497 (Isomer 2)], for which the pEC50 at 229E Mpro and in the data set with HCoV 229E was more than 5.70 each time.

On 229E Mpro, `COc1cccc2[nH]c(C(=O)N3CC4(C[C@H]3C(=O)N[C@H](C#N)C[C@@H]3CCCNC3=O)CC(F)(F)C4)cc12` (single isomer, unassigned) [723 (Isomer 1)] showed a negative logarithm of the EC50 (pEC50) of 4.52 to 5.00. This molecule had a negative-log IC50 (pIC50) in data set [1] of 4.52 to 5.00.

`COc1cccc2[nH]c(C(=O)N3CC4(C[C@H]3C(=O)N[C@H](C#N)C[C@@H]3CCCNC3=O)CC(F)(F)C4)cc12` (single isomer, unassigned) [723 (Isomer 2)] gave a negative logarithm of the EC50 (pEC50) on 229E Mpro of more than 5.70. This molecule also showed a negative logarithm of the IC50 (pIC50) in data set [1] of more than 5.70.

As for `N#C[C@H](C[C@@H]1CCCNC1=O)NC(=O)[C@@H]1CC2(CN1C(=O)c1cc3cccc(Cl)c3[nH]1)CC(F)(F)C2` (single isomer, unassigned) [743 (Isomer 1)], the pEC50 on 229E Mpro is less than 4.52. In addition, the negative logarithm of the IC50 (pIC50) in data set [1] was less than 4.52.

`N#C[C@H](C[C@@H]1CCCNC1=O)NC(=O)[C@@H]1CC2(CN1C(=O)c1cc3cccc(Cl)c3[nH]1)CC(F)(F)C2` (single isomer, unassigned) [743 (Isomer 2)] had a pEC50 at 229E Mpro of more than 5.70. The pIC50 in data set [1] is more than 5.70.

With `CC1(C)CCC(CC(C#N)NC(=O)[C@H](CC2CC2)NC(=O)c2cc3cccc(Cl)c3[nH]2)C(=O)N1` (single isomer, unassigned) [749A (Isomer 1)], the negative logarithm of the IC50 (pIC50) in data set [1] is more than 5.70.

Molecule `COC(=O)NS(=O)(=O)n1nccc1C(=O)NC(CC1CC1)C(=O)NC(C#N)CC1CCCNC1=O` (single isomer, unassigned) [787A (Isomer 2)] had a pEC50 at 229E Mpro of 5.00 to 5.70. This molecule gave a pIC50 in data set [1] of more than 5.70.

With `CC1(C)CC(C[C@@H](C#N)NC(=O)[C@H](CC2CC2)NC(=O)c2cc3cccc(Cl)c3[nH]2)C(=O)N1` (single isomer, unassigned) [1053 (Isomer 3)], the negative-log EC50 (pEC50) on 229E Mpro was 5.00 to 5.70.

Take `CC1(C)CC(CC(C#N)NC(=O)C(CC2CC2)NC(=O)c2cc3cccc(Cl)c3[nH]2)C(=O)N1` (single isomer, unassigned) [1053 (Isomer 4)]: the pEC50 on 229E Mpro was more than 5.70.

For the molecule `COc1cccc2[nH]c(C(=O)N[C@H](CC3CC3)C(=O)N[C@H](C#N)C[C@@H]3CCC(C)(C)NC3=O)cc12` (single isomer, unassigned; isomer 1) [787A (Isomer 1)], the negative logarithm of the EC50 (pEC50) at 229E Mpro was 5.00 to 5.70.

Molecule `N#C[C@H](C[C@@H]1CCNC1=O)NC(=O)[C@@H]1CS[C@H]2CC[C@H](NC(=O)OCc3ccccc3)C(=O)N21` [Compound 457, Benzyl((3R,6S,8aS)-3-(((S)-1-cyano-2-((S)-2-oxopyrrolidin-3-yl)ethyl)carbamoyl)-5-oxohexahydro-2H-thiazolo[3,2-a]pyridin-6-yl)carbamate] showed a negative logarithm of the EC50 (pEC50) at 229E Mpro of less than 4.52.

With `Cc1cc(C(=O)N[C@H]2CC[C@@H]3SC[C@@H](C(=O)N[C@H](C#N)C[C@@H]4CCNC4=O)N3C2=O)no1` [Compound 459, N-((3R,6S,8aS)-3-(((S)-1-cyano-2-((S)-2-oxopyrrolidin-3-yl)ethyl)carbamoyl)-5-oxohexahydro-2H-thiazolo[3,2-a]pyridin-6-yl)-5-methylisoxazole-3-carboxamide], at 229E Mpro, the negative logarithm of the EC50 (pEC50) is less than 4.52.

`N#C[C@H](C[C@@H]1CCNC1=O)NC(=O)[C@H](CC1CC1)NC(=O)c1nc2c(Cl)cc(Cl)cc2[nH]1` [Compound 525, 4,6-dichloro-N-[(1S)-2-[[(1S)-1-cyano-2-[(3S)-2-oxopyrrolidin-3-yl]ethyl]amino]-1-(cyclopropylmethyl)-2-oxo-ethyl]-1H-benzimidazole-2-carboxamide] had a pEC50 on 229E Mpro of more than 5.70.

On 229E Mpro, `N#C[C@H](C[C@@H]1CCNC1=O)NC(=O)[C@H](CC1CC1)NC(=O)c1cc2ccc(Cl)cc2[nH]1` [Compound 529, 6-chloro-N-[(1S)-2-[[(1S)-1-cyano-2-[(3S)-2-oxopyrrolidin-3-yl]ethyl]amino]-1-(cyclopropylmethyl)-2-oxo-ethyl]-1H-indole-2-carboxamide] showed a pEC50 of more than 5.70.

As for `N#C[C@H](C[C@@H]1CCNC1=O)NC(=O)[C@H](CC1CC1)NC(=O)c1cc2c(Cl)ccc(Cl)c2[nH]1` [Compound 691, 4,7-dichloro-N-[(1S)-2-[[(1S)-1-cyano-2-[(3S)-2-oxopyrrolidin-3-yl]ethyl]amino]-1-(cyclopropylmethyl)-2-oxo-ethyl]-1H-indole-2-carboxamide], the pEC50 on 229E Mpro was more than 5.70.

At 229E Mpro, `COc1cc(Cl)c2[nH]c(C(=O)N[C@@H](CC3CC3)C(=O)N[C@H](C#N)C[C@@H]3CCNC3=O)cc2c1` [Compound 695, 7-chloro-N-[(1S)-2-[[(1S)-1-cyano-2-[(3S)-2-oxopyrrolidin-3-yl]ethyl]amino]-1-(cyclopropylmethyl)-2-oxo-ethyl]-5-methoxy-1H-indole-2-carboxamide] gave a pEC50 of more than 5.70.

What is called CC50 is the concentration giving 50% cytotoxicity. A lower CC50 goes with greater toxicity to the cells. For orientation: pEC50 means −log10 of the EC50, conventionally taken in molar units. A higher pEC50 goes with a low EC50. What is called pIC50 is the negative decadic logarithm of the IC50, by convention in mol/L. A higher pIC50 goes with a small IC50.

The values above are taken from patent US12145911B2, “Inhibitors of cysteine proteases and methods of use thereof” (priority 2020, dated 2024).
